Results taken from patent publication US20250034135A1, “ANTI-APOPTOTIC PROTEIN BCL-2 INHIBITOR, PHARMACEUTICAL COMPOSITION AND USES THEREOF” (HANGZHOU HEALZEN THERAPEUTICS CO., LTD., priority 2021, published 2025).

target: BCL2 (Homo sapiens (Human), UniProt P10415); assay: Molecular level activity test of anti-apoptotic protein BCL2 (HTRF, binding to Bim peptide); details: HTRF, binding of BCL2 to Bim peptide; read-out: BCL2 nM (inhibitory activity, IC50)
Method: The detection of the binding ability between anti-apoptotic protein BCL2 and pro-apoptotic protein Bim was performed using Homogeneous Time-Resolved Fluorescence technology. The reaction of this method occurred in a white shallow 384-well plate, with a total reaction volume of 10 μL. Specifically, it included 2 μL of the compound to be tested (2% DMSO), 4 μL His-tagged recombinant protein, and 4 μL Biotin-tagged BIM protein peptide. After 1 hour of reaction, 5 μL of each Anti-His and streptavidin-tagged XL665 antibody diluents diluted with a detection buffer were added. After incubating at room temperature for 4 hours, the values were read using the Envision multifunctional microplate reader to detect the effect of the compound to be tested on the binding ability of BCL2 to Bim protein peptides.

Chain of BCL2 (P10415 whole entry): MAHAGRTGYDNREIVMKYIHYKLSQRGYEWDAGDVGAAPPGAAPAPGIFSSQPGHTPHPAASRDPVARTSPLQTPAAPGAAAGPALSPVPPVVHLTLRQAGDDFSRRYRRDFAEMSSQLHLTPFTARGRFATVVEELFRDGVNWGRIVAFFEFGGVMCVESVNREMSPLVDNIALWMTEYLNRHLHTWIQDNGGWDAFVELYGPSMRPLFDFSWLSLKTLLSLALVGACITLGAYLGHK

Which IC50 does the source give for COc1ccc(CN2CCN(C3CC4(CCN(c5cc(Oc6cnc7[nH]ccc7c6)c(C(=O)NS(=O)(=O)c6cc([N+](=O)[O-])c(NCC7(F)CCOCC7)c7c6ncc(=O)n7C)cc5F)CC4)C3)[C@H](c3ccccc3C(C)C)C2)cc1 here?
Its IC50 is < 10 nM.

Which IC50 does the source give for CC(C)c1ccccc1[C@@H]1CCCN1C1CC2(CCN(c3ccc(C(=O)NS(=O)(=O)c4cc([N+](=O)[O-])c(NC[C@H]5CC[C@](C)(O)CC5)c5[nH]ccc45)c(Oc4cnc5[nH]ccc5c4)c3)CC2)C1 [compound 009, 2-((1H-pyrrolo[2,3-b]pyrid-5-yl)oxy)-N-((7-((((1r,4r)-4-hydroxy-4-methylcyclohexyl)methyl)amino)-6-nitro-1H-indol-4-yl)sulfonyl)-4-(2-((S)-2-(2-isopropylphenyl)pyrrolidin-1-yl)-7-azaspiro[3.5]non-7-yl)benzamide] here?
Its IC50 is < 10 nM.

How did the IC50 turn out when CC(C)c1ccccc1[C@@H]1CCCN1C1CC2(CCN(c3ccc(C(=O)NS(=O)(=O)c4cc([N+](=O)[O-])c(NCC5(F)CCN(C(C)C)CC5)c5[nH]ccc45)c(Oc4cnc5[nH]ccc5c4)c3)CC2)C1 [compound 010, (S)-2-((1H-pyrrolo[2,3-b]pyrid-5-yl)oxy)-N-((7-(((4-fluoro-1-isopropylpiperid-4-yl)methyl)amino)-6-nitro-1H-indol-4-yl)sulfonyl)-4-(2-(2-(2-isopropylphenyl)pyrrolidin-1-yl)-7-azaspiro[3.5]non-7-yl)benzamide] was run?
Its IC50 is < 10 nM.

How did the IC50 turn out when CC(C)c1ccccc1[C@@H]1CCCN1C1CC2(CCN(c3ccc(C(=O)NS(=O)(=O)c4cc([N+](=O)[O-])c(NC[C@H]5CC[C@](C)(O)CC5)c5[nH]cnc45)c(Oc4cnc5[nH]cc(F)c5c4)c3)CC2)C1 [compound 011, 2-((3-fluoro-1H-pyrrolo[2,3-b]pyrid-5-yl)oxy)-N-((7-((((1r,4r)-4-hydroxy-4-methylcyclohexyl)methyl)amino)-6-nitro-1H-benzo[d]imidazol-4-yl)sulfonyl)-4-(2-((S)-2-(2-isopropylphenyl)pyrrolidin-1-yl)-7-azaspiro[3.5]non-7-yl)benzamide] was run?
Its IC50 is < 10 nM.

CC(C)c1ccccc1[C@@H]1CCCN1C1CC2(CCN(c3cc(Oc4cnc5[nH]ccc5c4)c(C(=O)NS(=O)(=O)c4cc([N+](=O)[O-])c(NC[C@H]5CC[C@](C)(O)CC5)c5[nH]cnc45)cc3F)CC2)C1 [compound 014, 2-((1H-pyrrolo[2,3-b]pyrid-5-yl)oxy)-5-fluoro-N-((7-((((1r,4r)-4-hydroxy-4-methylcyclohexyl)methyl)amino)-6-nitro-1H-benzo[d]imidazol-4-yl)sulfonyl)-4-(2-((S)-2-(2-isopropylphenyl)pyrrolidin-1-yl)-7-azaspiro[3.5]non-7-yl)benzamide] was tested. Which IC50 did it give?
Its IC50 is < 10 nM.

CC(C)c1ccccc1[C@@H]1CCCN1C1CC2(CCN(c3cc(Oc4cnc5[nH]ccc5c4)c(C(=O)NS(=O)(=O)c4cc([N+](=O)[O-])c(NCC5CCC(O)CC5)c5[nH]cnc45)cc3F)CC2)C1 (stereo partly drawn) [compound 016] was tested. Which IC50 did it give?
The IC50 was < 10 nM.

CC(C)c1ccccc1[C@@H]1CCCN1C1CC2(CCN(c3cc(Oc4cnc5[nH]ccc5c4)c(C(=O)NS(=O)(=O)c4cc([N+](=O)[O-])c(NC[C@H]5C[C@@](C)(O)C5)c5[nH]cnc45)cn3)CC2)C1 [compound 017, 4-((1H-pyrrolo[2,3-b]pyrid-5-yl)oxy)-N-((7-((((1S,3S)-3-hydroxy-3-methylcyclobutyl)methyl)amino)-6-nitro-1H-benzo[d]imidazol-4-yl)sulfonyl)-6-(2-((S)-2-(2-isopropylphenyl)pyrrolidin-1-yl)-7-azaspiro[3.5]non-7-yl) nicotinamide] was tested. Which IC50 did it give?
The IC50 was < 10 nM.

How did the IC50 turn out when CC(C)c1ccccc1[C@@H]1CCCN1C1CC2(CCN(c3cc(Oc4cnc5[nH]ccc5c4)c(C(=O)NS(=O)(=O)c4cc([N+](=O)[O-])c(NC[C@H]5C[C@@](C)(O)C5)c5[nH]cnc45)cc3F)CC2)C1 [compound 018, 2-((1H-pyrrolo[2,3-b]pyrid-5-yl)oxy)-5-fluoro-N-((7-((((1S,3S)-3-hydroxy-3-methylcyclobutyl)methyl)amino)-6-nitro-1H-benzo[d]imidazol-4-yl)sulfonyl)-4-(2-((S)-2-(2-isopropylphenyl)pyrrolidin-1-yl)-7-azaspiro[3.5]non-7-yl)benzamide] was run?
The IC50 was < 10 nM.

With CC(C)c1ccccc1[C@@H]1CCCN1C1CC2(CCN(c3cc(Oc4cnc5[nH]ccc5c4)c(C(=O)NS(=O)(=O)c4cc([N+](=O)[O-])c(NCC5(F)CCN(C(C)C)CC5)c5[nH]cnc45)cn3)CC2)C1 [compound 021, (S)-4-((1H-pyrrolo[2,3-b]pyrid-5-yl)oxy)-N-((7-(((4-fluoro-1-isopropylpiperid-4-yl)methyl)amino)-6-nitro-1H-benzo[d]imidazol-4-yl)sulfonyl)-6-(2-(2-(2-isopropylphenyl)pyrrolidin-1-yl)-7-azaspiro[3.5]non-7-yl) nicotinamide] as the compound, how does the IC50 read?
Its IC50 is < 10 nM.

With CC(C)c1ccccc1[C@@H]1CCCN1C1CC2(CCN(c3cc(Oc4cnc5[nH]ccc5c4)c(C(=O)NS(=O)(=O)c4cc([N+](=O)[O-])c(NCC5(F)CCN(C(C)C)CC5)c5[nH]cnc45)cc3F)CC2)C1 [compound 022, (S)-2-((1H-pyrrolo[2,3-b]pyrid-5-yl)oxy)-5-fluoro-N-((7-(((4-fluoro-1-isopropylpiperid-4-yl)methyl)amino)-6-nitro-1H-benzo[d]imidazol-4-yl)sulfonyl)-4-(2-(2-(2-isopropylphenyl)pyrrolidin-1-yl)-7-azaspiro[3.5]non-7-yl)benzamide] as the compound, how does the IC50 read?
Its IC50 is < 10 nM.

For CC(C)c1ccccc1[C@@H]1CCCN1C1CC2(CCN(c3cc(Oc4cnc5[nH]ccc5c4)c(C(=O)NS(=O)(=O)c4cc([N+](=O)[O-])c(NCC5(F)CCN(C6CCOCC6)CC5)c5[nH]cnc45)cn3)CC2)C1 [compound 023], which IC50 is on record?
The IC50 was < 10 nM.

CC(C)c1ccccc1[C@@H]1CCCN1C1CC2(CCN(c3cc(Oc4cnc5[nH]ccc5c4)c(C(=O)NS(=O)(=O)c4cc([N+](=O)[O-])c(NCC5(F)CCN(C6CCOCC6)CC5)c5[nH]cnc45)cc3F)CC2)C1 [compound 024, (S)-2-((1H-pyrrolo[2,3-b]pyrid-5-yl)oxy)-5-fluoro-N-((7-(((4-fluoro-1-(tetrahydro-2H-pyran-4-yl)piperid-4-yl)methyl)amino)-6-nitro-1H-benzo[d]imidazol-4-yl)sulfonyl)-4-(2-(2-(2-isopropylphenyl)pyrrolidin-1-yl)-7-azaspiro[3.5]non-7-yl)benzamide] was tested. Which IC50 did it give?
The IC50 was < 10 nM.

With CC(C)c1ccccc1[C@@H]1CCCN1C1CC2(CCN(c3cc(Oc4cnc5[nH]ccc5c4)c(C(=O)NS(=O)(=O)c4cc([N+](=O)[O-])c(NCC5(F)CCN(CC(C)(C)C)CC5)c5[nH]cnc45)cn3)CC2)C1 [compound 025, (S)-4-((1H-pyrrolo[2,3-b]pyrid-5-yl)oxy)-N-((7-(((4-fluoro-1-neopentylpiperid-4-yl)methyl)amino)-6-nitro-1H-benzo[d]imidazol-4-yl)sulfonyl)-6-(2-(2-(2-isopropylphenyl)pyrrolidin-1-yl)-7-azaspiro[3.5]non-7-yl) nicotinamide] as the compound, how does the IC50 read?
Its IC50 is < 10 nM.

For CC(C)c1ccccc1[C@@H]1CCCN1C1CC2(CCN(c3cc(Oc4cnc5[nH]ccc5c4)c(C(=O)NS(=O)(=O)c4cc([N+](=O)[O-])c(NCC5(F)CCN(CC(C)(C)C)CC5)c5[nH]cnc45)cc3F)CC2)C1 [compound 026], which IC50 is on record?
The IC50 was < 10 nM.

CC(=O)N1CCC(F)(CNc2c([N+](=O)[O-])cc(S(=O)(=O)NC(=O)c3cnc(N4CCC5(CC4)CC(N4CCC[C@H]4c4ccccc4C(C)C)C5)cc3Oc3cnc4[nH]ccc4c3)c3nc[nH]c23)CC1 [compound 027, (S)-4-((1H-pyrrolo[2,3-b]pyrid-5-yl)oxy)-N-((7-(((1-acetyl-4-fluoropiperid-4-yl)methyl)amino)-6-nitro-1H-benzo[d]imidazol-4-yl)sulfonyl)-6-(2-(2-(2-isopropylphenyl)pyrrolidin-1-yl)-7-azaspiro[3.5]non-7-yl) nicotinamide] was tested. Which IC50 did it give?
The IC50 was < 10 nM.

How did the IC50 turn out when CC(=O)N1CCC(F)(CNc2c([N+](=O)[O-])cc(S(=O)(=O)NC(=O)c3cc(F)c(N4CCC5(CC4)CC(N4CCC[C@H]4c4ccccc4C(C)C)C5)cc3Oc3cnc4[nH]ccc4c3)c3nc[nH]c23)CC1 [compound 028, (S)-2-((1H-pyrrolo[2,3-b]pyrid-5-yl)oxy)-N-((7-(((1-acetyl-4-fluoropiperid-4-yl)methyl)amino)-6-nitro-1H-benzo[d]imidazol-4-yl)sulfonyl)-5-fluoro-4-(2-(2-(2-isopropylphenyl)pyrrolidin-1-yl)-7-azaspiro[3.5]non-7-yl)benzamide] was run?
The IC50 was < 10 nM.

How did the IC50 turn out when CC(C)c1ccccc1[C@@H]1CCCN1C1CC2(CCN(c3cc(Oc4cnc5[nH]ccc5c4)c(C(=O)NS(=O)(=O)c4cc([N+](=O)[O-])c(NCC5(F)CCN(C(=O)CN(C)C)CC5)c5[nH]cnc45)cn3)CC2)C1 [compound 029, (S)-4-((1H-pyrrolo[2,3-b]pyrid-5-yl)oxy)-N-((7-(((1-(dimethylglycyl)-4-fluoropiperid-4-yl)methyl)amino)-6-nitro-1H-benzo[d]imidazol-4-yl)sulfonyl)-6-(2-(2-(2-isopropylphenyl)pyrrolidin-1-yl)-7-azaspiro[3.5]non-7-yl) nicotinamide] was run?
Its IC50 is < 10 nM.

How did the IC50 turn out when CC(C)c1ccccc1[C@@H]1CCCN1C1CC2(CCN(c3cc(Oc4cnc5[nH]ccc5c4)c(C(=O)NS(=O)(=O)c4cc([N+](=O)[O-])c(NCC5(F)CCN(C(=O)CN(C)C)CC5)c5[nH]cnc45)cc3F)CC2)C1 [compound 030, (S)-2-((1H-pyrrolo[2,3-b]pyrid-5-yl)oxy)-N-((7-(((1-(dimethylglycyl)-4-fluoropiperid-4-yl)methyl)amino)-6-nitro-1H-benzo[d]imidazol-4-yl)sulfonyl)-5-fluoro-4-(2-(2-(2-isopropylphenyl)pyrrolidin-1-yl)-7-azaspiro[3.5]non-7-yl)benzamide] was run?
The IC50 was < 10 nM.
